Reference: publication PMC6470838 (Pharmaceutics, 2019)
Where two headings read alike, the source gives them in different places.

Columns and labels:
[1] = ketoconazole 400 mg, qd; cited from earlier work
prothrombin time [2] = experiment: Prothrombin time after oral administration of rivaroxaban in rats; format: in vivo, Sprague Dawley rats; conditions: for AUEC, area under the percentage increase of prothrombin time vs. time curve / Emax, maximum percentage increase of prothrombin time: rivaroxaban 2 mg/kg oral, alone or with verapamil 25 mg/kg or diltiazem 30 mg/kg, mean (RSD %), n = 5
Procedure: (§1) All drugs were suspended in corn oil and administered orally.
(§2) After centrifugation (17,000 rpm, 10 min), plasma samples were stored at –70 °C until analysis, using 30 μL of plasma.
Prothrombin time was measured using a blood coagulation analyzer (ACL 7000, Instrumentation Laboratory, Bedford, MA, USA) at Korea Conformity Laboratories (Incheon, Korea) using PT recombiPlasTin 2G reagent (Instrumentation Laboratory, Bedford, MA, USA).
The time courses of prothrombin time were used to determine pharmacodynamic parameters: peak effect observed (Emax,observed) was directly obtained from the individual time courses; and the area under the effect-time curve (AUECt) was calculated by the trapezoidal rule.

prothrombin time [3] = system: prothrombin time
[4] = Rivaroxaban plasma pharmacokinetics after oral administration in rats (model independent analysis); format: in vivo, Sprague Dawley rats
Procedure: The animals used in this study were 15 Sprague Dawley rats (8-week-old males, 280–300 g). […] The study protocol was approved by the Institutional Animal Care and Use Committees (IACUC) at Chung-Ang University. All animals used in this study were cared for in accordance with the principles outlined in the National Institutes of Health Guide for the Care and Use of Laboratory Animals.
as §1, §2
Acetonitrile (90 μL) including flufenamic acid (10 ng/mL) was added to the plasma samples (30 μL). The mixture was vigorously vortexed for 10 s and centrifuged at 17,000 rpm for 10 min. A 5-μL sample of the supernatant was injected onto the LC-MS/MS.
The compounds were purified on a reversed-phase column (Atlantis® T3, 50 × 2.1 mm internal diameter, 3 µm particle size; Waters) at 30 °C.

prothrombin time [5] = conditions: humans; cited from earlier work
in vivo = conditions: male, Sprague Dawley, rat, plasma, oral, 2 mg/kg
[6] = compared with rivaroxaban 2 mg/kg alone, verapamil 25 mg/kg oral, rats
[7] = diltiazem 30 mg/kg oral, rats, vs rivaroxaban alone
[8] = male, Sprague Dawley, rat, plasma, po, 2 mg/kg
[9] = PK/PD model parameter of rivaroxaban, presence or absence of verapamil, mean (RSD %), n = 5

SMILES: CC(=O)N1CCN(c2ccc(OCC3COC(Cn4ccnc4)(c4ccc(Cl)cc4Cl)O3)cc2)CC1 (stereo not shown) [ketoconazole]
- Effect of the concomitant drug on the systemic exposure of rivaroxaban [1]: significantly increased

SMILES: COc1ccc(CCN(C)CCCC(C#N)(c2ccc(OC)c(OC)c2)C(C)C)cc1OC (stereo not shown) [Verapamil]
- Increase of AUEC of prothrombin time by the co-administered drug (prothrombin time [2]; [6]): 2.6 fold
- Increase of Emax of prothrombin time by the co-administered drug (prothrombin time [2]; [6]): 2.5 fold
- Effect of the co-administered drug on the slope (percentage increase of prothrombin time vs. rivaroxaban concentration) (prothrombin time [3]; verapamil 25 mg/kg, rats): no difference

SMILES: COc1ccc([C@@H]2Sc3ccccc3N(CCN(C)C)C(=O)[C@@H]2OC(C)=O)cc1 [diltiazem]
- Effect of the co-administered drug on clearance and AUCinf of rivaroxaban [4, 7]: no statistical differences
- Effect of the co-administered drug on Emax and AUEC of prothrombin time (prothrombin time [2]; [7]): did not represent any significant changes

SMILES: O=C(NC[C@H]1CN(c2ccc(N3CCOCC3=O)cc2)C(=O)O1)c1ccc(Cl)s1 [Rivaroxaban]
- AUC(0-inf) [4, 8]: 2700 ng·h/mL
- CL/F [4, 8]: 12.9 mL/min/kg
- Cmax [4, 8]: 373 ng/mL
- Tmax [4, 8]: 2.8 h
- AUCinf ([4]; rivaroxaban in plasma, rivaroxaban 2 mg/kg oral, alone or with verapamil 25 mg/kg or diltiazem 30 mg/kg, mean (RSD %), n = 5): 2700 ng·h/mL
- AUEC, area under the percentage increase of prothrombin time vs. time curve (prothrombin time [2]): 188 (9) % ∙h
- Emax, maximum percentage increase of prothrombin time (prothrombin time [2]): 30 (11) %
- AUEC, area under the percentage increase of prothrombin time vs. time curve (prothrombin time [2]; listed as rivaroxaban): 188 % ∙h
- Emax, maximum percentage increase of prothrombin time (prothrombin time [2]; listed as rivaroxaban): 30%
- Slope, percentage increase of prothrombin time vs. rivaroxaban plasma concentration (prothrombin time [3]; [9]): 0.08 (44) %·mL/ng
- f, absorption fraction (prothrombin time [3]; [9]): 0.61 (30) fraction
- ka, absorption rate constant (prothrombin time [3]; [9]): 0.63 (22) h^−1
- ttransit, transit time (prothrombin time [3]; [9]): 6.37 (21) h
- ttransit, transit time (prothrombin time [3]; PK/PD model parameter of rivaroxaban, presence or absence of verapamil, mean (RSD %), n = 5, listed as rivaroxaban): 6.4 h
- Slope of relative prothrombin time (ratio of the baseline level) vs. rivaroxaban plasma concentration (prothrombin time [3]; rats, prothrombin times rescaled to ratio of baseline): 0.00054
- Part of the dose initially absorbed, contributing to the first peak (prothrombin time [3]; rivaroxaban alone, model estimate): 40%
- Slope of relative prothrombin time vs. rivaroxaban plasma concentration (prothrombin time [5]): approximately 0.0029
- Vd/F (in vivo): 0.96 L/kg
- k el (in vivo): 0.000236 s⁻¹
